Here are results for 15 molecules from patent US4241184A, “Secondary alcohol dehydrogenase enzyme and use thereof” (priority 1979, dated 1980).

A short description of assay [1]: Oxidation of 2-butanol to 2-butanone by cell-free soluble extracts of C1-utilizing microbes. It counts as biochemical. The protocol: The clear supernatant contained the SADH activity. […] The reaction was started by the addition of substrate.
Catalytic activity was also assayed by fluorescence spectrophotometry.

The test system of assay [2] is secondary alcohol dehydrogenase. Briefly: Purified yeast secondary alcohol dehydrogenase: substrates, electron acceptors, inhibitors, stoichiometry. Type of assay: biochemical, Pichia sp. NRRL Y-11,328. The protocol: Large scale cultures of Pichia sp. NRRL Y-11,328 were grown with aeration at 30° C. in a 14-liter New Brunswick f fermentor in a mineral salt medium containing methanol (0.4%, v/v) as the sole carbon source. The cells (200 g., wet weight) were suspended in […] sodium phosphate buffer, pH 7.0, containing 1 mM dithiothreitol (buffer A), and crude extracts were prepared as described previously. To the crude extracts, 18 ml. of protamine sulfate solution [2% solution in 0.1 M tris (hydroxymethyl) aminomethane (tris) base] was added dropwise with continuous stirring. After standing for 30 min., the extracts were centrifuged at 20,000×g. for 60 min. The supernatant solution was fractionated with solid ammonium sulfate. Extracts were brought to 50% of saturation with respect to ammonium sulfate by addition of 313 g. of the salt per liter of extract. Precipitated proteins was removed by centrifugation, and 137 g. of ammonium sulfate was added per liter of the supernatant liquid to bring it to 70% of saturation. Material precipitating between 50 and 70% of saturation was collected by centrifugation and dissolved in buffer A. This preparation was dialyzed overnight against buffer A, and the dialyzed material was applied to a DEAE-cellulose column (5×40 cm) that had been equilibrated with buffer A. The sample was washed with 200 ml. of buffer A and eluted with 2 liters of buffer A that contained NaCl in a linear gradient running from a concentration of 0 to 0.5 M. Fractions of 15 ml. were collected. Fractions containing secondary alcohol dehydrogenase activity were pooled and were termed DEAE-cellulose eluate. The DEAE-cellulose eluate was concentrated by ammonium sulfate fractionation.
Secondary alcohol dehydrogenase activity was measured spectrophotometrically at 340 nm with a NAD^+ as an electron acceptor. The reaction mixture, in a total 3.0 ml., contained 50 mM phosphate buffer, pH 8.0, 5μ moles NAD^+, crude extracts, and subtrate. The reactions were started by addition of 100 μl of 0.1 M substrate and the rate of NAD^+ reduction was measured. Protein concentration was determined by the method of Lowry et al.
The substrate specificity of the purified secondary alcohol dehydrogenase was examined spectrophotometrically.

In assay [3] the test system is secondary alcohol dehydrogenase (SADH). The experiment in a line: Purified secondary alcohol dehydrogenase activity (formation of reduced NAD). Type of assay: biochemical, Pseudomonas sp. ATCC 21439. The protocol:
Secondary alcohol dehydrogenase (SADH) from an obligate methanol utilizer, Pseudomonas sp. ATCC 21439 was purified as follows. […] 0.05 M sodium phosphate buffer, pH 7.0 with 0.5 mM dithiothretol (buffer A) and were disrupted sonically (5×1 min.). The crude extract was separated by centrifugation. The crude extract was heat-treated at 50° C. in a water bath for 10 minutes. The resulting precipitate was removed by centrifugation. To the supernatant solution, 25 ml of protamine sulfate solution (2% solution in 0.1 M Tris base) was added dropwise with continuous stirring. After standing for 30 minutes, the extract was centrifuged. The supernatant solution was fractionated with solid ammonium sulfate. The material precipitating between 30 and 60% saturation was collected and was dialized overnight against buffer A. The The dialized material was applied to a DEAE-cellulose column (3 cm by 35 cm) that had been equilibrated with buffer A. The secondary alcohol dehydrogenase activity was eluted in the void volume. This DEAE-cellulose eluate was concentrated by ammonium sulfate fractionation. Material precipitating between 30 and 50% ammonium sulfate saturation was collected by centrifugation and dialyzed overnight against A. This fraction was further washed and filtered through an Amicon unit with XM 50 membrane. The concentrated fraction (6 ml) inside the Amicon unit was applied to an Affi-Gel Blue column (0.8 cm×18 cm) which had been equilibrated with buffer A for affinity chromatography. The column was washed overnight with buffer A (0.18 ml./min.) and then was eluted with buffer A containing 5 mM NAD. Each 1 ml. fraction was collected.
The purified secondary alcohol dehydrogenase enzyme (SADH) may be used directly for converting C3 -C6 secondary alcohols to the corresponding methyl ketones by the procedures described above; however, a source of NAD^+ must be added to the reaction medium. One can determine the NAD-linked secondary alcohol dehydrogenase activity with a fluorescence spectrophotometer (Perkin Elmer, Model MPF 44A) by following the formation of reduced NAD (Ex 340 nm, Em 460 nm). The assay system (3 ml.) will typically contain: sodium phosphate buffer pH 7.0, 150 μmol; NAD 1.0 μmol; a given amount of enzyme preparation; and 20 μmol secondary alcohol. The reaction is started by the addition of secondary alcohol. One unit of SADH enzyme activity represents the reduction of one nmole NAD per minute.
The effect of metal-chelating agents and thioreagents on the activity of the purified SADH enzyme were studied. […] The possibility of ethanol or n-propanol as an inhibitor was studied.

For assay [4], the system named is P(40) particulate fraction of Methylosinus sp. (CRL-15, NRRL B-11,202). Briefly: Oxidation of n-alkenes and n-alkanes by P(40) particulate fraction. Type of assay: biochemical.
The test system is the same in assay [5]. Briefly: Stoichiometry of propylene epoxidation and methane hydroxylation by P(40) fraction. Type of assay: biochemical. To be noted: 5.0 μmoles substrate. The protocol: The particulate P(40) fraction of Methylosinus sp. (CRL-15, NRRL B-11,202) was used to determine the stoichiometry of hydroxylation and epoxidation reactions. The stoichiometry of methane or propylene-dependant NADH oxidation, oxygen consumption and product formation was approximately 1:1:1 Table XIV. This is consistent with methane or propylene oxygenation being catalyzed by a mono-oxygenase.
^a Under identical condition of reaction, the estimation of NADH
oxidized was carried out spectrophotometrically, the estimation of oxygen
consumed was measured polarographically, and estimation of product formed
was carried out by gas chromatography.

The test system of assay [6] is Methylococcus capsulatus (CRL Ml, NRRL B-11,219). The experiment in a line: Effect of inhibitors on epoxidation of propylene and hydroxylation of methane, cell-containing enzyme preparation. Conditions: cell suspension of methane-grown strain. Type of assay: cell-based.
Assay [7] concerns methanol-grown Methylococcus capsulatus CRL M1 (NRRL B-11,219). The experiment in a line: Effect of metal-chelating agents and other inhibitors on production of 2-butanone by cell suspensions. Type of assay: cell-based. Conditions: NRRLB11, read-out: Inhibition (%) of production of 2-butanone.
Assay [8] concerns P(40) particulate fraction of Methylosinus sp. (CRL-15, NRRL B-11,202). Briefly: Effect of inhibitors on propylene epoxidation and methane hydroxylation by P(40) fraction. It counts as biochemical. Conditions: inhibitor 10^-3 M. Here is the method:
(§1) The oxidation of methane and propylene by particulate [(P)40 and(P)80] fractions and soluble [S(80)] fraction was measured at 30° C. by estimating the production of methanol and propylene oxide, respectively. The reaction mixtures contained in 1.0 ml: 150 mM potassium phosphate buffer, pH 7.0 containing 5 mM MgCl2, 0.6 ml; 10 μmoles NADH, and cellular fraction.
Reaction mixtures were contained in 10 ml vials at 4° C. Vials were sealed with rubber caps. The gaseous phase in the vials was removed using vacuum and then was replaced with a gas mixture of methane or propylene and oxygen at a 1:1, v/v ratio. Oxidation of other gaseous n-alkanes and n-alkenes was examined as described above. For liquid substrates, 10 μl of substrate was used directly. Vials were then incubated at 30° C. on a rotary shaker at 200 RPM.
It has been reported that the oxidation of methane by cell suspensions of methane-utilizing bacteria was inhibited by various metal-binding or metal-chelating agents (Patel et al., J. Bacteriol. 126: 1017-1019 (1976)). […] (CRL-15, NRRL B-11,202) was examined.

Assay [9] concerns cell-free particulate fractions derived from the methylotrophic microorganisms. The experiment in a line: Conversion of C3-C6 n-alkanes to sec. alcohols by cell-free particulate fractions: inhibitors and electron donors. It counts as biochemical. From the text: The conditions for preparing the cell suspensions or the cell-free particulate fractions from methane-grown methylotroph microorganisms is the same as described above. […] Tables XXV and XXVI show the conversion of C3 -C6 n-alkanes to the corresponding secondary alcohols using cell suspensions and cell-free particulate fractions, respectively, of methane-grown methylotroph microorganisms.

The test system of assay [10] is P(40) particulate fraction of Methylosinus sp. (CRL-15, NRRL B-11,202). The experiment in a line: Effect of metals on propylene epoxidation and methane hydroxylation by P(40) fraction. Conditions: metal 10^-3 M; for Methane-Oxidizing Activity in presence of metal: control 4.0; for Propylene-Oxidizing Activity in presence of metal: control […]. Type of assay: biochemical. Here is the method: as §1
Reaction mixtures were contained in 10 ml vials at 4° C. Vials were sealed with rubber caps. The gaseous phase in the vials was removed using vacuum and then was replaced with a gas mixture of methane or propylene and oxygen at a 1:1, v/v ratio. Oxidation of other gaseous n-alkanes and n-alkenes was examined as described above. For liquid substrates, 10 μl of substrate was used directly.
Since the methane mono-oxygenase from methane-utilizing bacteria is a copper or iron-containing protein (Tonge et al., J. Biochem., 161: 333-344 (1977)), we have examined the effect of copper and iron salts on the oxidation of methane and propylene by the P(40) particulate fraction of Methylosinus sp. (CRL-15, NRRL B-11,202). The rate of hydroxylation of methane to methanol and epoxidation of propylene to propylene oxide was increased twofold in the presence of added copper salts (Table XII).

Entries after “also recorded” stand apart in the source; their conditions may differ. Where two headings read alike, the source gives them in different places.

For the molecule `O=C1C(Cl)=CC(=Nc2ccc(O)cc2)C=C1Cl` [dichlorophenol indophenol], in [1], the “cofactor for oxidation of secondary alcohols in the cell-free system” value (“cofactor … in the cell-free system” for short) was “not effective”. The “electron acceptor for the purified enzyme” value (from here on “electron acceptor”) in assay [2] is “could not act as electron carrier”.
As for `NC(=O)c1ccc[n+]([C@@H]2O[C@H](COP(=O)([O-])OP(=O)(O)OC[C@H]3O[C@@H](n4cnc5c(N)ncnc54)[C@H](O)[C@@H]3O)[C@@H](O)[C@H]2O)c1` [NAD, Nicotinamide adenine dinucleotide], the “cofactor … in the cell-free system” value in assay [1] is “requirement; also recorded: required”. Also, the Km in [3] (Line-Weaver-Burk plot, read-out: Michaelis constants (Km) of SADH) was found to be 11 µM; in assay [3] (pure SADH, read-out: Km values), 11 µM. In addition, in assay [2], the “electron acceptor” value is reported as “required”.
Regarding `C` [Methane], in assay [4] (substrate competition, gas phase as labelled), the “Propylene Oxide Produced” value is given as 0 μmoles/hr/mg. protein. Also, in assay [4] (substrate oxidized to its epoxide or alcohol, 30° C.), the “Rate of Product Formation” value is 4.8 μ moles/hr/mg of protein. In [5], the “NADH Oxidized” value came to 4.8 µmol, the “O2 Consumed” value was 4.6 µmol and the “Product formed” value amounted to 4.2 µmol. The “inhibition of epoxidation of propylene to propylene oxide in the presence of methane” value in assay [6] worked out at 50%.
In the case of `[N-]=[N+]=[N-]` [Sodium azide], the inhibition at 1000 µM in assay [7] came out at 10%. Moreover, the “% inhibition of SADH activity” value in assay [3] (purified SADH, each inhibitor 1 mM, measured spectrofluorometrically) was 10%.
With `Oc1cccc2cccnc12` [8-Hydroxyquinoline], in assay [8], the “% Inhibition, Methane-Hydroxylating Activity” value is 80% and the “% Inhibition, Propylene-Epoxidizing Activity” value was determined as 75%. For the same molecule, the “inhibition of the conversion of the n-alkanes to the sec. alcohols” value in assay [9] is “inhibited”.
`NC(=O)c1ccc[n+]([C@@H]2O[C@H](COP(=O)(O)OP(=O)(O)OC[C@H]3O[C@@H](n4cnc5c(N)ncnc54)[C@H](OP(=O)(O)O)[C@@H]3O)[C@@H](O)[C@H]2O)c1` [NADP]: the “cofactor … in the cell-free system” value in assay [1] is on record as “not effective”. Besides, in assay [2], the “electron acceptor” value is on record as “could not act as electron carrier”.
Turning to `NC(=O)C1=CN([C@@H]2O[C@H](COP(=O)(O)OP(=O)(O)OC[C@H]3O[C@@H](n4cnc5c(N)ncnc54)[C@H](OP(=O)(O)O)[C@@H]3O)[C@@H](O)[C@H]2O)C=CC1` [NAD(P)H], the “cofactor … in the cell-free system” value in [1] was “not effective”.
With `O=S(=O)([O-])[O-].[Cu+2]` [Cupric Sulfate], in assay [10], the “Methane-Oxidizing Activity in presence of metal” value (“Methane-Oxidizing Activity” for short) amounted to 7.1 μmoles/hr/mg protein and the “Propylene-Oxidizing Activity in presence of metal” value (shortened to “Propylene-Oxidizing Activity”) worked out at 9.0 μmoles/hr/mg protein. For the same molecule, in assay [2], the “inhibition of secondary alcohol dehydrogenase activity” value was “inhibited”.
For the molecule `[Cl][Cu]` [Cuprous Chloride], in assay [10], the “Methane-Oxidizing Activity” value turned out to be 7.2 μmoles/hr/mg protein and the “Propylene-Oxidizing Activity” value is on record as 9.2 μmoles/hr/mg protein.
Regarding `NNC(N)=S` [Thiosemicarbazide], in assay [8], the “% Inhibition, Methane-Hydroxylating Activity” value is 100% and the “% Inhibition, Propylene-Epoxidizing Activity” value amounted to 97%. Moreover, the “inhibition of the conversion of the n-alkanes to the sec. alcohols” value in assay [9] is listed as “inhibited”.
On to Ferrous Sulfate, for which, in assay [10], the “Methane-Oxidizing Activity” value is recorded as 4.8 μmoles/hr/mg protein and the “Propylene-Oxidizing Activity” value was 5.9 μmoles/hr/mg protein.
Consider `Cc1cc2nc3c(=O)[nH]c(=O)nc-3n(C[C@H](O)[C@H](O)[C@H](O)COP(=O)(O)OP(=O)(O)OC[C@H]3O[C@@H](n4cnc5c(N)ncnc54)[C@H](O)[C@@H]3O)c2cc1C` [FAD, flavin adenine dinucleotide], for which, in [1], the “cofactor … in the cell-free system” value is on record as “not effective”. Besides, the “electron acceptor” value in assay [2] was “could not act as electron carrier”.
The corresponding values for `C[n+]1c2ccccc2nc2ccccc21` [phenazine methosulfate] are “not effective” and “could not act as electron carrier”.
As for `[Cl][Fe]([Cl])[Cl]` [Ferric Chloride], in [10], the “Methane-Oxidizing Activity” value was determined as 4.8 μmoles/hr/mg protein and the “Propylene-Oxidizing Activity” value is on record as 5.8 μmoles/hr/mg protein.
For the molecule `N[C@@H](CCC(=O)N[C@@H](CS)C(=O)NCC(=O)O)C(=O)O` [glutathione], the “cofactor … in the cell-free system” value in assay [1] is recorded as “not effective”. For the same molecule, the “inhibition of secondary alcohol dehydrogenase activity” value in assay [2] is recorded as “strongly inhibited”.

The Km is the concentration of substrate that gives half-maximal velocity. As usually defined, the inhibition is the change of the read-out against control, counted positive when it falls.
